Data published in PMC4300089, “Structure-Guided Design of Selective Epac1 and Epac2 Agonists” (PLoS Biology, 2015).

How the values were obtained:
[1] = biological target: T1, Epac1^Q270K (Homo sapiens, UniProt O95398, Q312K); assay: Epac activation assay, Epac1 Q270K mutant; assay type: biochemical
T1 construct: made in house
T1 sequence (O95398 150-881 isoform O95398-3 Q270K): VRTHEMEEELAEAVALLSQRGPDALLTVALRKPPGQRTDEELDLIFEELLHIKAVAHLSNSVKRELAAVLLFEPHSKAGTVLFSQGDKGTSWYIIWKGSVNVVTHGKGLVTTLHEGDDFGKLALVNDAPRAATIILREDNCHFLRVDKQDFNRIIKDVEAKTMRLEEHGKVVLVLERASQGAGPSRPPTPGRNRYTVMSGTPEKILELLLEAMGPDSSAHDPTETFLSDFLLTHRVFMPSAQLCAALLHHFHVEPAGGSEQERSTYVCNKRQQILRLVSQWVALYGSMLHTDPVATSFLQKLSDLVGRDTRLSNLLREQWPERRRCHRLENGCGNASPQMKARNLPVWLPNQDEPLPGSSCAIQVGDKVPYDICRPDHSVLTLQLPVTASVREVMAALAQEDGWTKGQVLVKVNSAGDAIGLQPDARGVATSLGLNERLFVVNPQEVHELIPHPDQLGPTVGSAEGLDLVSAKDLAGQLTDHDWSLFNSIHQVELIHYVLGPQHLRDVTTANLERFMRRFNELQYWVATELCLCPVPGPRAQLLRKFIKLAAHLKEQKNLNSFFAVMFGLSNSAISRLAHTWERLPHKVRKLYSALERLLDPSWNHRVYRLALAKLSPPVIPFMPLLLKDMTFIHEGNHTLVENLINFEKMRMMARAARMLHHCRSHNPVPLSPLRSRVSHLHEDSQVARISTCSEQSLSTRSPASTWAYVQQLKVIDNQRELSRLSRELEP

[2] = biological target: T2, Epac2^Δ280,K405Q (Mus musculus, UniProt Q9EQZ6, K423Q); assay: Epac activation assay, Epac2 K405Q mutant; assay type: biochemical
T2 construct: made in house
T2 sequence (Q9EQZ6 281-993 isoform Q9EQZ6-3 K405Q): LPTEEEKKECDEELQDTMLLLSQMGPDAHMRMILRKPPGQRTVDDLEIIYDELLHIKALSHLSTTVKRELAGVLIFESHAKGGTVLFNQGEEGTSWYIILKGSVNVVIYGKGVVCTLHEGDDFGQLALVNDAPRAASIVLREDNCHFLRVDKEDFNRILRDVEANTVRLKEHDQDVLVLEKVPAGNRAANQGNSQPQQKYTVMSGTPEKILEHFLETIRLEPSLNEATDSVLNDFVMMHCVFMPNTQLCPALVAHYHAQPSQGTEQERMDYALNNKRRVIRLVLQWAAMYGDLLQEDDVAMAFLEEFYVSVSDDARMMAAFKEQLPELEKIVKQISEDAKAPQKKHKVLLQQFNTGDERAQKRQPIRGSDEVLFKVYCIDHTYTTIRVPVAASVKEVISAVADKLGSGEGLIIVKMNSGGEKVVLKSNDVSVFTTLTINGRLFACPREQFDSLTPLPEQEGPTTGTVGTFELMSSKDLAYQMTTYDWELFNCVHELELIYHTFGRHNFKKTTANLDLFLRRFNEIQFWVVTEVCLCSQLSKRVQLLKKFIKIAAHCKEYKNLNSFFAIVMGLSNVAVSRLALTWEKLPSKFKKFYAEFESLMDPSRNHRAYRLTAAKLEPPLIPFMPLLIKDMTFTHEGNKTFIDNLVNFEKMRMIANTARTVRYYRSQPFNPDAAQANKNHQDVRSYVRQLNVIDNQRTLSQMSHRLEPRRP
Method: Murine Epac2 was used as all previous structural studies were performed with it.
The activity of Epac was determined by a fluorescence assay. […] The fluorescence intensity of Rap1B•mGDP is approximately twice that of free mGDP, and thus, nucleotide exchange can be observed as a decay in fluorescence upon the addition of excess unlabeled GDP.

**Q.** What does the source list for COC1C2OP(=O)(O)OCC2OC1n1c(Sc2ccc(Cl)cc2)nc2c(N)ncnc21 [D-007, 8-pCPT-2′-O-Me-cAMP, reference compound]?
**A.** activation [1]: poorly activated; activation [2]: efficiently activated
